Source: patent US20240180883A1, “TREATMENT OF MIGRAINE” (Allergan Pharmaceuticals International Limited, priority 2020, published 2024)
“Also recorded” adds a separate entry of the source.

Tests used:
CYP3A4 = molecular target: T1, CYP3A4 (Homo sapiens, UniProt P08684); assay: Expected interaction with weak or moderate CYP3A4 inducers
T1 construct: mainly eliminated by CYP3A4 metabolism; from tissue; host or cells: in vivo, the patient's own enzyme (the gut wall is mentioned)

[1] = Total: participants who took any investigational product
[2] = Total: participants who took any investigative product
[3] = Treatment A: ubrogepant 100 mg single dose, fasted
[4] = Treatment C: 600 mg rifampin co-administered with 100 mg ubrogepant on Day 14

T1 sequence (P08684 whole entry): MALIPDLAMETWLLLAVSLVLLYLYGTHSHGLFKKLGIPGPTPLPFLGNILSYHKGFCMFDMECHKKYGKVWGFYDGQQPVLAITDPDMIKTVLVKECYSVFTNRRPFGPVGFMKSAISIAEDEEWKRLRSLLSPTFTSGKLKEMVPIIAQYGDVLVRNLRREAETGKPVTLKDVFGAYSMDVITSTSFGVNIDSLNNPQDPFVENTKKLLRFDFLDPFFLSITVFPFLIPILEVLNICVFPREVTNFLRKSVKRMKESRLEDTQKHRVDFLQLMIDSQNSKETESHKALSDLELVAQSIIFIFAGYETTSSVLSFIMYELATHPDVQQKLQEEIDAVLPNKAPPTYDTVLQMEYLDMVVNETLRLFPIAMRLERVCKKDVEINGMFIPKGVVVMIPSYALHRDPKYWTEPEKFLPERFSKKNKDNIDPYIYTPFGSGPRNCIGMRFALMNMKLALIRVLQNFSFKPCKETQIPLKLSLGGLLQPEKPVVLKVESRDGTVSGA

Question: With C[C@@H]1[C@H](c2ccccc2)C[C@H](NC(=O)c2cnc3c(c2)C[C@@]2(C3)C(=O)Nc3ncccc32)C(=O)N1CC(F)(F)F [ubrogepant, (3′S)-N-((3S,5S,6R)-6-methyl-2-oxo-5-phenyl-1-(2,2,2-trifluoroethyl)piperidin-3-yl)-2′-oxo-1′,2′,5,7-etrahydrospiro[cyclopenta[b]pyridine-6,3′-pyrrolo[2,3-b]pyridine]-3-carboxamide] as the compound, how does the “reduction of ubrogepant exposure” value (CYP3A4; moderate CYP3A4 inducers) read?
Answer: The value was 50-80%.

Question: And the “reduction of ubrogepant exposure” value (CYP3A4; weak CYP3A4 inducers)?
Answer: The value was 20-50%.

Question: What about the participants with headache (Study B: adverse events; Study B, whole trial) of the same compound?
Answer: Its participants with headache is 13.3%.

Question: What about the “Any AE” value (Study B: adverse events; [1]) of the same compound?
Answer: Its value is 6 (20.0) n (%).

Question: What about the “Dry Mouth” value (Study B: adverse events; [1]) of the same compound?
Answer: Its value is 1 (3.3) n (%).

Question: And the Flatulence (Study B: adverse events; [1])?
Answer: The Flatulence was 1 (3.3) n (%).

Question: And the “Gastrointestinal Disorders” value (Study B: adverse events; [1])?
Answer: The value was 4 (13.3) n (%).

Question: And the Headache (Study B: adverse events; [1])?
Answer: The Headache was 4 (13.3) n (%).

Question: What about the Nausea (Study B: adverse events; [1]) of the same compound?
Answer: The Nausea was 2 (6.7) n (%).

Question: What about the “Nervous System Disorders” value (Study B: adverse events; [1]) of the same compound?
Answer: The value was 4 (13.3) n (%).

Question: And the “AEs leading to discontinuation” value (Study B: adverse events; [2])?
Answer: Its value is 0 n (%).

Question: And the Deaths (Study B: adverse events; [2])?
Answer: Its Deaths is 0 n (%).

Question: What about the SAEs (Study B: adverse events; [2]) of the same compound?
Answer: The SAEs was 0 n (%).

Question: And the TEAEs (Study B: adverse events; [2])?
Answer: Its TEAEs is 6 (20.0) n (%).

Question: What about the “Treatment related TEAEs” value (Study B: adverse events; [2]) of the same compound?
Answer: Its value is 6 (20.0) n (%).

Question: What about the “AEs leading to discontinuation” value (Study B: adverse events; [3]) of the same compound?
Answer: The value was 0 n (%).

Question: What about the “Any AE” value (Study B: adverse events; [3]) of the same compound?
Answer: The value was 4 (13.3) n (%).

Question: And the Deaths (Study B: adverse events; [3])?
Answer: The Deaths was 0 n (%).

Question: What about the “Dry Mouth” value (Study B: adverse events; [3]) of the same compound?
Answer: Its value is 1 (3.3) n (%).

Question: And the Flatulence (Study B: adverse events; [3])?
Answer: The Flatulence was 1 (3.3) n (%).

Question: And the “Gastrointestinal Disorders” value (Study B: adverse events; [3])?
Answer: Its value is 2 (6.7) n (%).

Question: And the Headache (Study B: adverse events; [3])?
Answer: The Headache was 2 (6.7) n (%).

Question: And the Nausea (Study B: adverse events; [3])?
Answer: The Nausea was 0 n (%).

Question: And the “Nervous System Disorders” value (Study B: adverse events; [3])?
Answer: Its value is 2 (6.7) n (%).

Question: What about the SAEs (Study B: adverse events; [3]) of the same compound?
Answer: Its SAEs is 0 n (%).

Question: And the TEAEs (Study B: adverse events; [3])?
Answer: Its TEAEs is 4 (13.3) n (%).

Question: What about the “Treatment related TEAEs” value (Study B: adverse events; [3]) of the same compound?
Answer: Its value is 4 (13.3) n (%).

Question: And the “AEs leading to discontinuation” value (Study B: adverse events; [4])?
Answer: Its value is 0 n (%).

Question: And the “Any AE” value (Study B: adverse events; [4])?
Answer: The value was 2 (7.1) n (%).

Question: What about the Deaths (Study B: adverse events; [4]) of the same compound?
Answer: Its Deaths is 0 n (%).

Question: And the “Dry Mouth” value (Study B: adverse events; [4])?
Answer: Its value is 0 n (%).

Question: And the Flatulence (Study B: adverse events; [4])?
Answer: The Flatulence was 0 n (%).

Question: And the “Gastrointestinal Disorders” value (Study B: adverse events; [4])?
Answer: The value was 2 (7.1) n (%).

Question: What about the Headache (Study B: adverse events; [4]) of the same compound?
Answer: Its Headache is 1 (3.6) n (%).

Question: What about the Nausea (Study B: adverse events; [4]) of the same compound?
Answer: Its Nausea is 2 (7.1) n (%).

Question: What about the “Nervous System Disorders” value (Study B: adverse events; [4]) of the same compound?
Answer: Its value is 1 (3.6) n (%).

Question: What about the SAEs (Study B: adverse events; [4]) of the same compound?
Answer: Its SAEs is 0 n (%).

Question: What about the TEAEs (Study B: adverse events; [4]) of the same compound?
Answer: Its TEAEs is 2 (7.1) n (%).

Question: And the “Treatment related TEAEs” value (Study B: adverse events; [4])?
Answer: Its value is 2 (7.1) n (%).

Question: What about the safety and tolerability (Study B: adverse events; single oral dose coadministered with multiple doses of rifampin) of the same compound?
Answer: Its safety and tolerability is “safe and generally well tolerated; also recorded: safe and generally well-tolerated”.
